Active and inactive are the calls of the source.

In ChEMBL document CHEMBL1201862, “PubChem BioAssay data set” (2004) one finds AC50, EC50 and IC50 data, which are given here for five molecules.

Among the targets are Cytochrome P450 2D6 (Homo sapiens, UniProt P10635); Cytochrome P450 2C9 (Homo sapiens, UniProt P11712); Cytochrome P450 3A4 (Homo sapiens, UniProt P08684).
For a further data set, the target named is Cytochrome P450 2C19 (Homo sapiens, UniProt P33261). Kind of data set: Cytochrome panel assay with activity outcomes. Panel member name: p450-cyp2c19 Compounds with AC50 equal or less than 10 uM are considered active. The data set is classed as functional.
Cytochrome P450 2C19, sequence (P33261 whole entry): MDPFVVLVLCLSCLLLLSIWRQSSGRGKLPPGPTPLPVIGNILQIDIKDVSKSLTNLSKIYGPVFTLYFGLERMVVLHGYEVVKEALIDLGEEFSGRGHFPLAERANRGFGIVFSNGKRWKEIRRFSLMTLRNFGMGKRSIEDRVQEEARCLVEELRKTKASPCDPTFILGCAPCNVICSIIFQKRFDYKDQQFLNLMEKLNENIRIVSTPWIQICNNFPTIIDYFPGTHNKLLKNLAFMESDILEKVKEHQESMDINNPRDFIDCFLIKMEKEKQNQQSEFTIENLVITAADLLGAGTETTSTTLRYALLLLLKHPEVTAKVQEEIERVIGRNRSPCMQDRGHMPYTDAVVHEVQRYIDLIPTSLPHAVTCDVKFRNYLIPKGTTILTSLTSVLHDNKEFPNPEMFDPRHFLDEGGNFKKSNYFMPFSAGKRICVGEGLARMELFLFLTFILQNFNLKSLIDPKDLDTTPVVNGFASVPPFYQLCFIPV
The nature of data set [1]: inhibitors of SNCA 5'UTR-driven reporter translation, confirmation, H4 neuroglioma cells, luminescence (AID 1988). The data set is classed as functional, cell-based.
The nature of data set [2]: luciferase reporter signal reduction – luminescence, H4-C neuroglioblastoma cells, dose response (AID 2458).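 Note: H4 neuroglioblastoma cells stably carrying a luciferase reporter gene fusion.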 The data set is classed as functional, cell-based.
Another data set relates to INS1. Kind of data set: beta cell apoptosis inhibitors, cytokine rescue, dose response, luminescence, retest (AID 449756).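 Note: cell death triggered by IL-1 beta plus TNF-alpha plus IFN-gamma mixture; protective hits raise ATP signal compared with cytokine alone wells.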 The data set is classed as functional, cell-based. The settings on record: Rattus norvegicus.
Data set [3] has as its system Streptococcus sp. 'group A'. Kind of data set: growth inhibition of control SK(-) GAS strain, dose response, counter-screen for streptokinase expression inhibitor project, luminescence, kanamycin, BacTiterGlo, confirmation (AID 1900). The data set is classed as functional, organism-based.
Data set [4] in a line: inhibitors of SNCA 5'UTR-driven translation, confirmation, luminescence, H4 neuroglioblastoma cells, dose confirmation (AID 2454).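 Note: H4 neuroglioblastoma cells carrying an alpha-synuclein 5'UTR luciferase reporter; potency for inhibition of the luciferase signal.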 The data set is classed as functional, cell-based.
The next data set has as its system Streptococcus. Kind of data set: Group A Streptococcus viability loss, dose response, counter-screen for streptokinase expression inhibitor project, luminescence, BacTiterGlo (AID 1915).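 Note: potency for reduction of bacterial viability or growth.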 The data set is classed as functional, organism-based.
The nature of data set [5]: cytotoxicity in HEK-293T cells, dose response, cytotoxicity control for TCR NF-kB inhibitor project, luminescence, T-cell screen hits (AID 489026).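 Note: cells exposed to compound about 14 hours before the viability readout.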 The data set is classed as functional, cell-based.
The target of data set [6] is Intestinal-type alkaline phosphatase (Mus musculus, UniProt P24822). Kind of data set: PubChem AID 488874. The data set is classed as functional.
Intestinal-type alkaline phosphatase (Mus musculus, UniProt P24822), sequence (P24822 whole entry): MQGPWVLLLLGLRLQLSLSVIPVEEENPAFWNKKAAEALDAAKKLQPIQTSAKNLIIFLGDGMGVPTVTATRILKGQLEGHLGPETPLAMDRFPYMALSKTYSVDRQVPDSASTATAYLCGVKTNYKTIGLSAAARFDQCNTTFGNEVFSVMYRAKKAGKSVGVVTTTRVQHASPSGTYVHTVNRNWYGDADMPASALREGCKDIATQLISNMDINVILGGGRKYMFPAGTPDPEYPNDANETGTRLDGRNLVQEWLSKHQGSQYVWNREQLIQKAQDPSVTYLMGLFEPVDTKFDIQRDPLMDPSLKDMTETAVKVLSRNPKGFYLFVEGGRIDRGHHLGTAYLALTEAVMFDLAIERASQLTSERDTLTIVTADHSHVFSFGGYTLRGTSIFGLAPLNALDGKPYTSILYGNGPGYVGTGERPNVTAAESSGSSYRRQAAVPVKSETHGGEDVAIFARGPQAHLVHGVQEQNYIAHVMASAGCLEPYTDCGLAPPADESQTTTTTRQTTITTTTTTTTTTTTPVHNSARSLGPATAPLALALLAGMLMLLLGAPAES
Data set [7] is described as follows: cells. The data set is classed as functional, cell-based.
The target in a further data set is T1, Streptokinase A (Streptococcus pyogenes serotype M1, UniProt P10520).
T1 sequence (P10520 whole entry): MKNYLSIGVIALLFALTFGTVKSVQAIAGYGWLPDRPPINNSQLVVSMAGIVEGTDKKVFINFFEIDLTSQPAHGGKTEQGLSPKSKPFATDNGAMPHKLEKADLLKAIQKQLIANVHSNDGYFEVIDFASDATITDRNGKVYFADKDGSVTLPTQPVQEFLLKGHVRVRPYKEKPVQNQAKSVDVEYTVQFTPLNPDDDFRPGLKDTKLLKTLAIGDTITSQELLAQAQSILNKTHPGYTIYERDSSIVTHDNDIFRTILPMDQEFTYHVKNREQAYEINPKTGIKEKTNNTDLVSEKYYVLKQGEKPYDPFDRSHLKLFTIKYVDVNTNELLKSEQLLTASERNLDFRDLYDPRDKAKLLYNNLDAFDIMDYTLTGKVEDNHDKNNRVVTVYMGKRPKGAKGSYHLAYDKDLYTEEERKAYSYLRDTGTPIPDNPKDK
Kind of data set: S. pyogenes streptokinase expression inhibitors, potency, dose response, plasminogen activation absorbance, OD405 (AID 1914).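 Note: secreted streptokinase activity via plasminogen activation per viability signal from cell pellet.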 The data set is classed as functional, Streptococcus pyogenes M1 GAS.

Data set [8] concerns the target T2, Intestinal-type alkaline phosphatase (Homo sapiens, UniProt P09923). Nature of the data set: human intestinal alkaline phosphatase activators, dose response, biochemical, luminescence, uHTS hits (AID 463120). The data set is classed as functional.
Data set [9] concerns the target T2, Intestinal-type alkaline phosphatase. Nature of the data set: human IAP activators, dose response, biochemical, luminescent, uHTS hits, set 2 (AID 488817).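 Note: potency of activators that raise enzyme activity.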 The data set is classed as functional.
For data set [10], the target named is T3, Alkaline phosphatase, tissue-nonspecific isozyme (Homo sapiens, UniProt P05186).
T3 sequence (P05186 whole entry): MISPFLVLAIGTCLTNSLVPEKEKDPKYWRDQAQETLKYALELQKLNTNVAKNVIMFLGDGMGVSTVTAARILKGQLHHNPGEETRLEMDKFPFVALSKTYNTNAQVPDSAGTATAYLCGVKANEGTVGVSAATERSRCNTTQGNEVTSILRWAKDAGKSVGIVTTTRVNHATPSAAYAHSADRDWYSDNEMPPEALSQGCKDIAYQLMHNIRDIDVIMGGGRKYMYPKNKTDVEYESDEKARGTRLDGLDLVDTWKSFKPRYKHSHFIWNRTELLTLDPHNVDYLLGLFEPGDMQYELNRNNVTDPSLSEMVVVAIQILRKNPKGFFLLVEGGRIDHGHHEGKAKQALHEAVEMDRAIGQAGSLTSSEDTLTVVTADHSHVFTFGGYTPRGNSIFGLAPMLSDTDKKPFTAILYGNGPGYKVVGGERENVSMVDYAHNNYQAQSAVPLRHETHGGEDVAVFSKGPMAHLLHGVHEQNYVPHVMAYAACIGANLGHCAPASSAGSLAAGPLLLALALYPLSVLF
Nature of the data set: TNAP enzyme activators, dose response, selectivity assay for human IAP activator project, biochemical, TNAP isozyme, human IAP uHTS hits (AID 488886).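 Note: potency of compounds raising TNAP activity as a selectivity check on IAP activators.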 The data set is classed as functional.

Data set [11] is described as follows: insulin promoter down-regulators in MIN6 cells, imaging, high-content screening, mouse beta cells (AID 1628). The data set is classed as functional.
Data set [12] in a line: inhibitors of intracellular T. cruzi replication, confirmation, NIH3T3 host cells, beta-gal luminescence (AID 2044).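 Note: intracellular parasites grown in NIH/3T3 mouse fibroblasts as host cells; luminescent beta-galactosidase reporter signal from transgenic T. cruzi replicating inside host cells; inhibitors lower the luminescence signal.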 The data set is classed as functional, cell-based.
Data set [13] in a line: C. albicans growth with fluconazole, confirmation, fluorescence, retest (AID 2467). The data set is classed as functional, cell-based.
A short description of data set [14]: cells. The data set is classed as functional, cell-based. This is another data set of the same source.
Data set [15] in a line: cytotoxicity in MIN6 insulinoma cells, dose response, cytotoxicity control, cell-based, mouse insulinoma (AID 2122).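 Note: confirmatory high-throughput counterscreen run to flag cytotoxic compounds; mouse MIN-6 beta cells carrying an insulin promoter eGFP reporter.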 The data set is classed as functional.
Data set [16] can be described thus: cytotoxicity toward NIH3T3 fibroblasts, dose response, counter-screen, cell-based, ATP luminescence, mouse fibroblasts (AID 2010).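 Note: cells exposed to compound for about 90 hours before reading.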 The data set is classed as functional. On the technique in general: The purpose of a counterscreen is to sort out artefacts and off-target activity.
The nature of data set [17]: NIH-3T3 fibroblast cytotoxicity, dose response, cytotoxicity control, cell-based, fluorescence, Alamar Blue, secondary assay (AID 2327).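 Note: NIH-3T3 mouse fibroblasts cultured with fluconazole at 8 µg/mL.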 The data set is classed as functional. On the technique in general: Resazurin is reduced to fluorescent resorufin, in cell work by metabolically active cells.
A short description of data set [18]: cells. The data set is classed as functional, cell-based. This is another data set of the same source.
Data set [19] is described as follows: A cytotoxicity screen of small molecule inhibitors of the PhoP region in Salmonella typhi identified in the primary screen. [Related pubchem assays: 1850, 1864, 1985 ]. The data set is classed as functional.
Data set [20] deals with T4, Short transient receptor potential channel 4 (Mus musculus, UniProt Q9QUQ5).
T4 sequence (Q9QUQ5 whole entry): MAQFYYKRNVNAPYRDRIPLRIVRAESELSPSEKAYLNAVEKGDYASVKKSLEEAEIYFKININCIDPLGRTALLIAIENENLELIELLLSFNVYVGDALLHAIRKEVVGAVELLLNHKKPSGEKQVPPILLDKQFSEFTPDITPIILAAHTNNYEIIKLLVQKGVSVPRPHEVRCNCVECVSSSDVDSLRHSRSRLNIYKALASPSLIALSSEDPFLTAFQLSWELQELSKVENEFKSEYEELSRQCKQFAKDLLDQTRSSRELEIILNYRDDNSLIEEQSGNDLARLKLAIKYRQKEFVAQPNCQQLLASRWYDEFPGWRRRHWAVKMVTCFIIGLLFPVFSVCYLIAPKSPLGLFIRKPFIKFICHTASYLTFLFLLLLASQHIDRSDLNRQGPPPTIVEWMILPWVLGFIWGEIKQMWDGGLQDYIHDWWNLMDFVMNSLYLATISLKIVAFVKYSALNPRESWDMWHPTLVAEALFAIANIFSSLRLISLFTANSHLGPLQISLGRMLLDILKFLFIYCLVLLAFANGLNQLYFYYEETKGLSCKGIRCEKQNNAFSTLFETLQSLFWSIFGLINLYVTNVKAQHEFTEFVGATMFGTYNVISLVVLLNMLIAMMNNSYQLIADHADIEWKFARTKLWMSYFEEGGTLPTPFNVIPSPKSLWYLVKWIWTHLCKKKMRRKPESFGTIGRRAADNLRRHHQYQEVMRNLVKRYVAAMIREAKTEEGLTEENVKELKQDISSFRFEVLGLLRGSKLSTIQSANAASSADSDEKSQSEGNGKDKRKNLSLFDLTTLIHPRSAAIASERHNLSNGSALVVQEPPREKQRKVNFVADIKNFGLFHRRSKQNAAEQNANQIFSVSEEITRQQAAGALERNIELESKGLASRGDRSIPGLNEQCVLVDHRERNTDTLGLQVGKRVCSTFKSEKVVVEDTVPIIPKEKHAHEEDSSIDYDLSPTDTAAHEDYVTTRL
Nature of the data set: mouse TRPC4 channel inhibitors, dose response, cell-based, HEK293 TRPC4/mu-opioid, Fluo-4 calcium (AID 434942).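 Note: potency of inhibitors blocking the TRPC4 calcium response.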 The data set is classed as functional.

The target of data set [21] is DNA repair protein RAD52 homolog (Homo sapiens, UniProt P43351). The data set is classed as functional, biochemical.
DNA repair protein RAD52 homolog, sequence (P43351 whole entry): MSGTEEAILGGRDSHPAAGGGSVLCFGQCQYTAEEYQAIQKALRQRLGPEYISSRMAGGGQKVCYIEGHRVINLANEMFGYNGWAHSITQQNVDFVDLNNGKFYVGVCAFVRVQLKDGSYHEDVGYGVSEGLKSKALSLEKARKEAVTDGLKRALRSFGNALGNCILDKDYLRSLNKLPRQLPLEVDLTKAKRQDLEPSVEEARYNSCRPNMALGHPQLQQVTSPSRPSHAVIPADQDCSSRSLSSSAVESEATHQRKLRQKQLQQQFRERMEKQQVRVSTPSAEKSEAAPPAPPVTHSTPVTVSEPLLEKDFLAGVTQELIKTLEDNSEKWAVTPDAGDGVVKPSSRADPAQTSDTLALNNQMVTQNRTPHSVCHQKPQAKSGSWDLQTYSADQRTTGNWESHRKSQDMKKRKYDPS
In the next data set the target is CAAX prenyl protease 1 (Saccharomyces cerevisiae S288c, UniProt P47154). Nature of the data set: Ste24 protease inhibitors, dose response, biochemical, S. cerevisiae, plate reader, cherry-pick (AID 488815).
CAAX prenyl protease 1, sequence (P47154 whole entry): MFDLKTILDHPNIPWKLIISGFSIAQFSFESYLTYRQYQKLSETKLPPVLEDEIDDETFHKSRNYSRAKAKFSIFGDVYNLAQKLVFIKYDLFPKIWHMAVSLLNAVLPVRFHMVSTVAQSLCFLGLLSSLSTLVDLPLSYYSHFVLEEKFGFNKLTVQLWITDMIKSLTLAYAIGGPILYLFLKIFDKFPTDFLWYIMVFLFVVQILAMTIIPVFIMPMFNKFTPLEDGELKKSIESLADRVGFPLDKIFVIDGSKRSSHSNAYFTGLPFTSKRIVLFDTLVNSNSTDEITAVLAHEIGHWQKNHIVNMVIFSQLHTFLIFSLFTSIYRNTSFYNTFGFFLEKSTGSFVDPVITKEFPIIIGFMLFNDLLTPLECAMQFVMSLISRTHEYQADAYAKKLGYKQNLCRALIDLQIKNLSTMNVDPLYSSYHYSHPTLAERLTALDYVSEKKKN
Data set [22] deals with T5, DNA repair and recombination protein RAD54-like (Homo sapiens, UniProt Q92698).
T5 sequence (Q92698 whole entry): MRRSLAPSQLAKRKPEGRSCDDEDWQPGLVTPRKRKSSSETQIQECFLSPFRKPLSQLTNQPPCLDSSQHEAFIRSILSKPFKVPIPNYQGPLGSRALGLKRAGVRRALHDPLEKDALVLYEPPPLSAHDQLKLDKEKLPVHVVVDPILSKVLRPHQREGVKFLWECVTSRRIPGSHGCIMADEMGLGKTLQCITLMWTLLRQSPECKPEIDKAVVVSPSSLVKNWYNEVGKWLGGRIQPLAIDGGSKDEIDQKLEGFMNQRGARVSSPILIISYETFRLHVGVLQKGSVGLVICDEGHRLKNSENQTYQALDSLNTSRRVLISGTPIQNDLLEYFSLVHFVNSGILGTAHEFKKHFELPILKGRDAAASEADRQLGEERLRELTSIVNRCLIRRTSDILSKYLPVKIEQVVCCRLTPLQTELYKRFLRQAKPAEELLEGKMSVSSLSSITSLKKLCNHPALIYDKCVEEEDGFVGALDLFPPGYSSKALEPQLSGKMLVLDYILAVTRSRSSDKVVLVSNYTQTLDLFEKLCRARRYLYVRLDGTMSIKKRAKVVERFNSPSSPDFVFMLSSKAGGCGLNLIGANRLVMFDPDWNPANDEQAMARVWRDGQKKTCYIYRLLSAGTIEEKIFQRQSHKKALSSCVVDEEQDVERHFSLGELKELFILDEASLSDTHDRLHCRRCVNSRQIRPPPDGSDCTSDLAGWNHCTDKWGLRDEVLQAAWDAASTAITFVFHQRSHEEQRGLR
Kind of data set: inhibitors of human RAD54 branch migration, confirmation, biochemical, fluorescence, cherry-picked samples, dose series (AID 651657). The data set is classed as functional.

T2 sequence (P09923 whole entry): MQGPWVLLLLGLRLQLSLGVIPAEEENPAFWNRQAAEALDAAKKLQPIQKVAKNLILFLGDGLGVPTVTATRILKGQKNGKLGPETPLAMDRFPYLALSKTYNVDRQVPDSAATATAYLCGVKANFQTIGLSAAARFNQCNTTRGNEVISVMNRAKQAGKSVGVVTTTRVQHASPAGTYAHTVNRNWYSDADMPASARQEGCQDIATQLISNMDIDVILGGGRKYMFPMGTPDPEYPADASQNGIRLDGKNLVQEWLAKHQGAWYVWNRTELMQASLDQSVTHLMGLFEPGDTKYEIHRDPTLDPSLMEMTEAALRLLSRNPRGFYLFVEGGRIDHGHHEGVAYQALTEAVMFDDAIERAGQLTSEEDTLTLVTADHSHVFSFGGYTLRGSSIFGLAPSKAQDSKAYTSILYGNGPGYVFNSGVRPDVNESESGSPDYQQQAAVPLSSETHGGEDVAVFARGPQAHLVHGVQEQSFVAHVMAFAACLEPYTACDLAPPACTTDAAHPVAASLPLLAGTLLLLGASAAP
Cytochrome P450 2D6, sequence (P10635 whole entry): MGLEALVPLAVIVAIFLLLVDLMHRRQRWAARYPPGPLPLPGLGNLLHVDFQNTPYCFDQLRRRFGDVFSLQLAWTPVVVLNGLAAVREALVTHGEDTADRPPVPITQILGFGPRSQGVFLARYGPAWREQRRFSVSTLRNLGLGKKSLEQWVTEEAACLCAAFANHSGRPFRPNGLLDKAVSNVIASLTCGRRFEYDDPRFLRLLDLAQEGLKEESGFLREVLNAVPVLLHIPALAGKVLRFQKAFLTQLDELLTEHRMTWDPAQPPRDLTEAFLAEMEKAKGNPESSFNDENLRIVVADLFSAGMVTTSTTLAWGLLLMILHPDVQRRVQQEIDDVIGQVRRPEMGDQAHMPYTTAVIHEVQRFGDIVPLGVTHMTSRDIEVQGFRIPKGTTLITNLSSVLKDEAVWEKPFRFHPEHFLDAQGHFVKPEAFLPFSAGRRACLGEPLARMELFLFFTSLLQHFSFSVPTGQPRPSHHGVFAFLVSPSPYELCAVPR
Cytochrome P450 3A4, sequence (P08684 whole entry): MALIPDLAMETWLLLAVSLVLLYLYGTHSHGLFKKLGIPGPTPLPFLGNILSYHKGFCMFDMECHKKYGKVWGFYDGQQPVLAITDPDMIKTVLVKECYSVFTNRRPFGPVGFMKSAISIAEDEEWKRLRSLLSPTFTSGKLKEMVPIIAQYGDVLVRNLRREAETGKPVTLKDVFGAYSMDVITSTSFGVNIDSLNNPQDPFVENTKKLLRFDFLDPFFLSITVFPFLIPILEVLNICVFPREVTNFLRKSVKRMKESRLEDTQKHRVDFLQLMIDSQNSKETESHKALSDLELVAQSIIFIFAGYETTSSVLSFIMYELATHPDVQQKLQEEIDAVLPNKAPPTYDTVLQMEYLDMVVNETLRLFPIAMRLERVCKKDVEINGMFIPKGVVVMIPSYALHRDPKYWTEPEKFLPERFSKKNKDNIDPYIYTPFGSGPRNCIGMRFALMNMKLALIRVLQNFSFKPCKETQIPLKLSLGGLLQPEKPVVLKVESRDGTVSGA
Cytochrome P450 2C9, sequence (P11712 whole entry): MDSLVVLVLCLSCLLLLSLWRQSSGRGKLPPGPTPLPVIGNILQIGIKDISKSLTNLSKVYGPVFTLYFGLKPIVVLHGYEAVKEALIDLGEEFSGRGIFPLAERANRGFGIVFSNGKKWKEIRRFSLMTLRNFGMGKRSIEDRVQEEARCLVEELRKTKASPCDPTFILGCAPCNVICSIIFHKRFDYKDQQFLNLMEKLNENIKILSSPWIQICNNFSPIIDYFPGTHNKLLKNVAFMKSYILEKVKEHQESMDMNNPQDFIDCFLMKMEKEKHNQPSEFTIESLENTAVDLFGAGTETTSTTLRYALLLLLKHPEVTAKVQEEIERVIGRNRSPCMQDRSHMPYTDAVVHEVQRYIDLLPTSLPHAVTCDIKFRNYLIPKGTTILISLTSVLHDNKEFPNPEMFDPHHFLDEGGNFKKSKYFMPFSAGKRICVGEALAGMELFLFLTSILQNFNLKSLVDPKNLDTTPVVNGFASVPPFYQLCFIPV

Regarding `O=C(Nc1nc2ccc(F)cc2s1)C1CCCO1` (configuration not stated), the AC50 entry was “inconclusive” on Cytochrome P450 2D6, 39.8 µM (inconclusive) on Cytochrome P450 2C9 and 25.1 µM (inconclusive) on Cytochrome P450 2C19 (read-out: AC50).

For the molecule `Cc1c(C(=O)N/N=C/c2c(O)ccc3ccccc23)nnn1-c1nonc1N`, the EC50 was < 0.1 µM (active) in data set [1]; 0.898 µM (active) in data set [2]; 5.56 µM (active) in data set [3]; 0.953 µM (active) in data set [4]; > 150 µM (not active) in the data set with Streptococcus; 0.958 µM (active) in “cells [7]”. Further, the EC50 on Streptokinase A was > 150 µM (not active); in data set [8], 7.47 µM (active); in data set [9], 8.92 µM (active); in data set [10], 8.59 µM (active). For the same molecule, in the data set on INS1, the AC50 is 0.317 µM (active). Besides, the IC50 was > 80 µM (inactive) in data set [5] and 95.2 µM (active) in data set [6].

Take `CCOc1ccc(/C=N/NC(=O)c2[nH]ncc2Br)c(O)c1`: the IC50 in data set [11] was 3.83 µM (active); in data set [6] it was 73.8 µM (active); in data set [15], 3.4 µM (active). In addition, the EC50 was 1.48 µM (active) in data set [12]; > 38 µM (not active) in data set [13]; 191 µM (active) in “cells [14]”; 10.3 µM (active) in [16]; 6.69 µM (active) in data set [8]; 14.9 µM (active) in data set [17]. The EC50 in [9] was 8.97 µM (active); in the data set “cells [18]”, 7.33 µM (active); in [10], 11.5 µM (active). The AC50 in the data set with INS1 is 1.14 µM (active).

In the case of `C[C@@H]1/C=C\CC(=O)OC[C@H](C)C(=O)N[C@@H](Cc2ccccc2)C(=O)OC1`, the AC50 result on Cytochrome P450 2D6 was “inconclusive”; at Cytochrome P450 3A4 it was 3.16 µM (inconclusive); at Cytochrome P450 2C19 it was “inconclusive”.

`Cc1ccc2nc3c(c(N)c2c1)CCN3C`: the figures for the EC50 in data set [19] and in data set [20] were > 50 µM (active) and 2.37 µM (active), respectively. Moreover, the figures for the AC50 (in [21]; on CAAX prenyl protease 1; in data set [22]) were 15.4 µM (active), 16.6 µM (active) and 21.7 µM (active), respectively.

For orientation: AC50 means the midpoint of the concentration-response curve, whichever way the signal moves. The term EC50 denotes the concentration giving half of the maximal effect. By IC50 is commonly meant the concentration at which inhibition is half-maximal.
